Among the test systems are ACHN; HOP-92; IGROV-1; SF-268; UO-31; MDA-MB-231; CCRF-CEM; SR; RXF 393; NCI/ADR-RES; HT-29; SK-MEL-28; K562; A549; OVCAR-8; SK-MEL-5; OVCAR-3; RPMI-8226; HL-60.
Common to all, as to test: inhibition of tumour cell growth, NCI panel, 48 h

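Compound exposure: 48 hours, 5 concentrations, 96-well plates. GI50 is the concentration that inhibits growth by half.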 Active and inactive are the calls of the source. Cut-off read from the data, not from the text of the source: active = GI50 up to about 1.1 µM and inactive = higher. Where a SMILES comes first, the peptide text is derived from it. The star is where a group is joined. Boc = CC(C)(C)OC(=O)*; OBn = c1ccc(CO*)cc1 Where only a bound is given, the exact number is not on record here.

As for `COC(=O)[C@@H](NC(=O)c1ccc(CNC(=O)/C(C)=C/c2ccccc2)cc1)C(C)C`, the GI50 with ACHN, in the assay with HOP-92, with IGROV-1, with SF-268, in the assay on UO-31 and in the assay with MDA-MB-231 was > 100 µM (inactive) each time. Besides, the GI50 was 4.71 µM (inactive) with CCRF-CEM; > 100 µM (inactive) in the assay on SR; 79.6 µM (inactive) in the assay on RXF 393; > 100 µM (inactive) with NCI/ADR-RES; > 100 µM (inactive) with HT-29; 40.8 µM (inactive) with SK-MEL-28. The GI50 is > 100 µM (inactive) with K562; > 100 µM (inactive) in the assay with A549; > 100 µM (inactive) in the assay on OVCAR-8; 68.4 µM (inactive) in the assay with SK-MEL-5; 27.4 µM (inactive) in the assay with OVCAR-3; 69.8 µM (inactive) in the assay with RPMI-8226.
Turning to `ClC1=NSSC1(Cl)Cl`, the GI50 in the assay on ACHN is 20.4 µM (inactive); with HOP-92 it was > 10 µM (inactive); in the assay on IGROV-1, 61 µM (inactive); in the assay on UO-31 it was 26.7 µM (inactive); in the assay with MDA-MB-231, 30.8 µM (inactive); with CCRF-CEM, 6.47 µM (inactive). The GI50 was 21 µM (inactive) with SR; 46.1 µM (inactive) in the assay with RXF 393; 34.8 µM (inactive) with NCI/ADR-RES; 30.5 µM (inactive) in the assay with HT-29; > 10 µM (inactive) with SK-MEL-28; 5.9 µM (inactive) in the assay with K562. Besides, the GI50 is > 100 µM (inactive) in the assay on A549; 24.4 µM (inactive) with OVCAR-8; 14.1 µM (inactive) in the assay with SK-MEL-5; 25.2 µM (inactive) in the assay with OVCAR-3; 23.5 µM (inactive) in the assay on RPMI-8226; 2.4 µM (inactive) in the assay on HL-60.
Regarding `CC[C@]1(Cc2ccc(OC)c(OC)c2)[C@@H]2C[C@@H](C3OCCO3)ON2O[C@H](OC2CCCC2(c2ccccc2)c2ccccc2)[C@@H]1OC(C)=O` (stereo partly drawn), the GI50 was 18.1 µM (inactive) in the assay on ACHN; 23.3 µM (inactive) in the assay with IGROV-1; 19.9 µM (inactive) in the assay with SF-268; 20.6 µM (inactive) with UO-31; 44.3 µM (inactive) in the assay on MDA-MB-231; 18.7 µM (inactive) in the assay on CCRF-CEM. In addition, the GI50 is 16.1 µM (inactive) in the assay on SR; 28.9 µM (inactive) in the assay on NCI/ADR-RES; 23.5 µM (inactive) in the assay on HT-29; 20.5 µM (inactive) with SK-MEL-28; 17.7 µM (inactive) in the assay with K562; 24 µM (inactive) in the assay on A549. Besides, the GI50 in the assay on OVCAR-8 is 24.9 µM (inactive); in the assay with SK-MEL-5 it was 18.5 µM (inactive); in the assay with OVCAR-3 it was 12.7 µM (inactive).
Regarding `C=C(C)[C@H]1CC(=O)[C@@]2(C)C[C@H]3O[C@]3(C)CC/C=C(\C)CC[C@H]12`, the GI50 was 42.9 µM (inactive) in the assay with ACHN; 64.1 µM (inactive) in the assay on HOP-92; 73.1 µM (inactive) in the assay on IGROV-1; 77.3 µM (inactive) with SF-268; 57.1 µM (inactive) in the assay on UO-31; 84.1 µM (inactive) with MDA-MB-231. Further, the GI50 in the assay with CCRF-CEM is 32.7 µM (inactive); with RXF 393 it was 33.8 µM (inactive); with NCI/ADR-RES, 35.4 µM (inactive); in the assay on HT-29, 34.1 µM (inactive); in the assay on SK-MEL-28 it was 50.4 µM (inactive); with K562, 18 µM (inactive). Besides, the GI50 in the assay with A549 is 58.1 µM (inactive); in the assay with OVCAR-8, 98.4 µM (inactive); with SK-MEL-5, 32.2 µM (inactive); in the assay on OVCAR-3 it was 29.9 µM (inactive); with RPMI-8226, 33.4 µM (inactive); in the assay on HL-60, 21.6 µM (inactive).
Take `O=c1[nH]nc(NCCc2ccccc2)c2nnn(Cc3ccccc3)c12`: the GI50 in the assay with ACHN, in the assay on SF-268, with UO-31, in the assay with MDA-MB-231, in the assay on CCRF-CEM and in the assay on SR was > 100 µM (inactive) in each case. Besides, the GI50 in the assay with RXF 393, in the assay on NCI/ADR-RES, with HT-29, with SK-MEL-28, with K562 and in the assay on A549 was > 100 µM (inactive) throughout. Besides, the GI50 in the assay on OVCAR-8, in the assay on SK-MEL-5, in the assay on OVCAR-3, in the assay on RPMI-8226 and in the assay with HL-60 was > 100 µM (inactive) in each case.
For the compound `Cc1cc(C2(O)C=C(C(C)(C)C)C(=O)C(C(C)(C)C)=C2)c(C)cc1C1(O)C=C(C(C)(C)C)C(=O)C(C(C)(C)C)=C1`, the GI50 with ACHN, with IGROV-1, in the assay with SF-268, with UO-31, in the assay on MDA-MB-231 and in the assay with CCRF-CEM was > 100 µM (inactive) throughout. For the same compound, the GI50 in the assay with SR is 17.2 µM (inactive); with NCI/ADR-RES, > 100 µM (inactive); with HT-29 it was > 100 µM (inactive); with SK-MEL-28 it was > 100 µM (inactive); in the assay on K562, > 100 µM (inactive); in the assay on A549 it was > 100 µM (inactive). Besides, the GI50 in the assay on OVCAR-8, in the assay on SK-MEL-5, in the assay on RPMI-8226 and in the assay on HL-60 was > 100 µM (inactive) each time.
Take `COc1cc(C[P+](c2ccccc2)(c2ccccc2)c2ccccc2)cc(OC)c1OC`: the GI50 in the assay with ACHN, in the assay with HOP-92, in the assay on IGROV-1, in the assay on SF-268, in the assay on UO-31 and in the assay with CCRF-CEM was > 100 µM (inactive) throughout. The GI50 in the assay with SR, with RXF 393, in the assay on HT-29, with SK-MEL-28, in the assay with K562 and in the assay on A549 was > 100 µM (inactive) in each case. Besides, the GI50 in the assay on OVCAR-8, in the assay with SK-MEL-5, with OVCAR-3, in the assay with RPMI-8226 and with HL-60 was > 100 µM (inactive) each time.
As for `O=C(O)/C=C/C(=O)N1C/C(=C\c2ccccc2)C(=O)/C(=C/c2ccccc2)C1`, the GI50 in the assay on ACHN is 8.13 µM (inactive); with HOP-92, 19.9 µM (inactive); in the assay with IGROV-1, 16.7 µM (inactive); in the assay on SF-268, 6.35 µM (inactive); with UO-31 it was 18.2 µM (inactive); in the assay on CCRF-CEM, 2.36 µM (inactive). For the same compound, the GI50 is 3.72 µM (inactive) in the assay with SR; 5.05 µM (inactive) in the assay on RXF 393; 8.65 µM (inactive) in the assay with NCI/ADR-RES; 7.76 µM (inactive) in the assay on HT-29; 6.49 µM (inactive) in the assay on SK-MEL-28; 2.37 µM (inactive) with K562. The GI50 was 21.4 µM (inactive) in the assay with A549; 2.7 µM (inactive) with OVCAR-8; 8.95 µM (inactive) in the assay on SK-MEL-5; 7.26 µM (inactive) in the assay with OVCAR-3; 1.78 µM (inactive) in the assay on RPMI-8226; 7.96 µM (inactive) with HL-60.
As for `CC(N)Cc1ccc(Cl)cc1` (stereo not drawn), the GI50 in the assay on ACHN is > 100 µM (inactive); with HOP-92, 50.8 µM (inactive); in the assay with IGROV-1 it was 42.4 µM (inactive); in the assay with SF-268, > 100 µM (inactive); in the assay on UO-31 it was 59.4 µM (inactive); in the assay on CCRF-CEM, 61.2 µM (inactive). The GI50 was > 100 µM (inactive) with SR; > 100 µM (inactive) with RXF 393; 50.8 µM (inactive) with HT-29; > 100 µM (inactive) in the assay on SK-MEL-28; 50.6 µM (inactive) in the assay on K562; > 100 µM (inactive) in the assay on A549. Besides, the GI50 in the assay on OVCAR-8 was > 100 µM (inactive); in the assay on SK-MEL-5, 72.1 µM (inactive); in the assay on OVCAR-3, > 100 µM (inactive); with RPMI-8226, > 100 µM (inactive); with HL-60, 37.6 µM (inactive).
On to `CC(C)(C)OC(=O)NC(Cc1ccccc1)C(=O)NC(Cc1ccccc1)C(=O)NCC(=O)OCc1ccccc1` (stereo not drawn) (Boc-Phe-Phe-Gly-OBn; configuration not given here), for which the GI50 is 47.3 µM (inactive) in the assay on ACHN; > 100 µM (inactive) in the assay on HOP-92; 13.2 µM (inactive) in the assay with IGROV-1; 15.3 µM (inactive) with SF-268; 41 µM (inactive) in the assay with UO-31; > 10 µM (inactive) with MDA-MB-231. The GI50 in the assay on CCRF-CEM was 16.4 µM (inactive); in the assay with SR, 18.4 µM (inactive); in the assay on NCI/ADR-RES, > 100 µM (inactive); with HT-29 it was 16.7 µM (inactive); with SK-MEL-28, 23.3 µM (inactive); in the assay with K562, 12.5 µM (inactive). Further, the GI50 is 30.1 µM (inactive) in the assay with OVCAR-8, 20 µM (inactive) in the assay with OVCAR-3, 15.4 µM (inactive) in the assay with RPMI-8226 and 19.7 µM (inactive) in the assay with HL-60.
Regarding `O=C1Cc2c([nH]c3ccc([N+](=O)[O-])cc23)-c2ccccc2N1` [ALSTERPAULLONE], the GI50 was 0.288 µM (active) in the assay on ACHN; 7.93 µM (inactive) in the assay on HOP-92; 0.53 µM (active) with IGROV-1; 0.471 µM (active) in the assay on SF-268; 0.109 µM (active) in the assay on UO-31; 1.16 µM (inactive) with MDA-MB-231. For the same compound, the GI50 with CCRF-CEM is 0.118 µM (active); in the assay on RXF 393, 0.284 µM (active); in the assay with NCI/ADR-RES it was 0.61 µM (active); with HT-29 it was 0.389 µM (active); with SK-MEL-28 it was 0.345 µM (active); in the assay on K562, 0.774 µM (active). For the same compound, the GI50 was 0.211 µM (active) in the assay with A549; 0.446 µM (active) with OVCAR-8; 0.174 µM (active) in the assay with SK-MEL-5; 0.158 µM (active) in the assay on OVCAR-3; 0.438 µM (active) in the assay on RPMI-8226; 0.261 µM (active) with HL-60.
